Earlier results as cited in patent publication US11413229B2, “Oral plaque dispersion agent” (KAO CORPORATION, priority 2016, dated 2022).

Conditions: at 20° C.

In the case of `CC(CO)(CO)CO` [Trimethylolethane, 1,1,1-tris(hydroxymethyl)ethane], the solubility to water is listed as 60 g/100 mL.
